Like-named read-outs stand apart in the source and are kept apart here.
How the values were obtained:
RS4; 11 cells = assay: Cell proliferation assay (MTS), RS4; 11 cells; assay type: cell-based; conditions: RS4, 11 (ATCC CRL-1873) cell proliferation, 30000 cells/well, 72 h, MTS, mechanism-based readout of Bcl-2 inhibition, read-out: RS4, 11 IC50
Description: (§1) MTS testing kit was purchased from Promega. The RPMI-1640, Fetal bovine serum and Penicillin-Streptomycin were purchased from Gibco. Dimethyl sulfoxide (DMSO) was purchased from Sigma.
(§2) To investigate whether a compound is able to inhibit the activity of Bcl-2 in cells, a mechanism-based assay using DOHH2 (DSMZ No.® ACC 47) and RS4; 11 (ATCC® CRL-1873™) cell was developed. In this assay, inhibition of Bcl-2 was detected by the inhibition of DOHH2 and RS4; 11 cells proliferation. DOHH2 and RS4; 11 cells were cultured in culture flasks to 40-80% confluence in RPMI-1640 plus 10% fetal bovine serum. Cells were collected and plated onto 96-well plates at desired cell density (DOHH2: 5000 cells/well; RS4; 11: 30000 cells/well). Plates were incubated overnight at 37° C., with 5% CO2 to adhere. Compounds were added to the plates, and the final compound concentrations were 10000, 3333, 1111, […], 124, 41, 14, 4.6 and 1.5 nM. Plates plated with DOHH2 or RS4; 11 cells were placed at 37° C., with 5% CO2 for 120 h (DOHH2) or 72 h (RS4; 11) respectively. 20 μl MTS/100 μl medium mixture solution were added to each well and incubate the plates for exactly 2 hours. The reaction was stopped by adding 25 μl 10% SDS per well. Measure absorbance at 490 nm and 650 nm (reference wavelength). ICso was calculated using GraphPad Prism 5.0.

DOHH2 cells = assay: Cell proliferation assay (MTS), DOHH2 cells; assay type: cell-based; conditions: DOHH2 (DSMZ ACC 47) cell proliferation, 5000 cells/well, 120 h, MTS, mechanism-based readout of Bcl-2 inhibition, read-out: DOHH2 IC50
Description: as §1, §2

Molecule `CCN=S1(=O)CCN(CCNc2ccc(S(=O)(=O)NC(=O)c3ccc(N4CCN(CC5=C(c6ccc(Cl)cc6)CC(C)(C)CC5)CC4)cc3Oc3cnc4[nH]ccc4c3)cc2[N+](=O)[O-])CC1` [Example 34, 2-((1H-pyrrolo[2,3-b]pyridin-5-yl)oxy)-4-(4-((4′-chloro-5,5-dimethyl-3,4,5,6-tetrahydro-[1,1′-biphenyl]-2-yl)methyl)piperazin-1-yl)-A,-((4-((2-(1-(ethylimino)-1-oxido-1λ^6-thiomorpholino)ethyl)amino)-3-nitrophenyl)sulfonyl) benzamide] has an IC50 (RS4; 11 cells; Homo sapiens, RS4-11, 72 h) of 106 nM and an IC50 (DOHH2 cells; Homo sapiens, DOHH-2, 120 h) of 38 nM.

In the case of `CN=S1(=O)CCN(CC[C@H](C)Nc2ccc(S(=O)(=O)NC(=O)c3ccc(N4CCN(CC5=C(c6ccc(Cl)cc6)CC(C)(C)CC5)CC4)cc3Oc3cnc4[nH]ccc4c3)cc2[N+](=O)[O-])CC1` [Example 94, (S)-2-((1H-pyrrolo[2,3-b]pyridin-5-yl)oxy)-4-(4-((4′-chloro-5,5-dimethyl-3,4,5,6-tetrahydro-[1,1′-biphenyl]-2-yl)methyl)piperazin-1-yl)-N-((4-((4-(1-(methylimino)-1-oxido-1λ^6-thiomorpholino)butan-2-yl)amino)-3-nitrophenyl)sulfonyl) benzamide], the IC50 (RS4; 11 cells; Homo sapiens, RS4-11, 72 h) is reported as 27 nM and the IC50 (DOHH2 cells; Homo sapiens, DOHH-2, 120 h) is reported as 15 nM.

Molecule `COC(=O)N=S1(=O)CCN(CC[C@H](C)Nc2ccc(S(=O)(=O)NC(=O)c3ccc(N4CCN(CC5=C(c6ccc(Cl)cc6)CC(C)(C)CC5)CC4)cc3Oc3cnc4[nH]ccc4c3)cc2S(=O)(=O)C(F)(F)F)CC1` [Example 92, methyl (S)-(4-(3-((4-(N-(2-((1H-pyrrolo[2,3-b]pyridin-5-yl)oxy)-4-(4-((4′-chloro-5,5-dimethyl-3,4,5,6-tetrahydro-[1,1′-biphenyl]-2-yl)methyl)piperazin-1-yl)benzoyl)sulfamoyl)-2-((trifluoromethyl)sulfonyl)phenyl)amino)butyl)-1-oxido-1λ^6-thiomorpholin-1-ylidene) carbamate] has an IC50 (RS4; 11 cells; Homo sapiens, RS4-11, 72 h) of 109 nM and an IC50 (DOHH2 cells; Homo sapiens, DOHH-2, 120 h) of 53 nM.

With `CCS(=O)(CC)=NC1CC(CNc2ccc(S(=O)(=O)NC(=O)c3ccc(N4CCN(CC5=C(c6ccc(Cl)cc6)CC(C)(C)CC5)CC4)cc3Oc3cnc4[nH]ccc4c3)cc2[N+](=O)[O-])C1` (stereo not shown) [Example 60, 2-((1H-pyrrolo[2,3-b]pyridin-5-yl)oxy)-4-(4-((4′-chloro-5,5-dimethyl-3,4,5,6-tetrahydro-[1,1′-biphenyl]-2-yl)methyl)piperazin-1-yl)-N-((4-(((3-((diethyl(oxo)-λ^6-sulfanylidene)amino)cyclobutyl)methyl)amino)-3-nitrophenyl)sulfonyl)benzamide] the IC50 (RS4; 11 cells; Homo sapiens, RS4-11, 72 h) was 21 nM and the IC50 (DOHH2 cells; Homo sapiens, DOHH-2, 120 h) was 49 nM.

`CCS(=O)(CC)=NC1CCC(CNc2ccc(S(=O)(=O)NC(=O)c3ccc(N4CCN(CC5=C(c6ccc(Cl)cc6)CC(C)(C)CC5)CC4)cc3Oc3cnc4[nH]ccc4c3)cc2[N+](=O)[O-])CC1` (stereo not shown) [Example 9A, 2-((1H-pyrrolo[2,3-b]pyridin-5-yl)oxy)-4-(4-((4′-chloro-5,5-dimethyl-3,4,5,6-tetrahydro-[1,1′-biphenyl]-2-yl)methyl)piperazin-1-yl)-N-((4-((((1r,4r)-4-((diethyl(oxo)-λ^6-sulfanylidene)amino)cyclohexyl)methyl)amino)-3-nitrophenyl)sulfonyl)benzamide] showed an IC50 (RS4; 11 cells; Homo sapiens, RS4-11, 72 h) of 4 nM and an IC50 (DOHH2 cells; Homo sapiens, DOHH-2, 120 h) of 67 nM.

Molecule “(S)-2-((1H-pyrrolo[2,3-b] pyridin-5-yl)oxy)-4-(4-((4′- chloro-5,5-dimethyl- 3,4,5,6-tetrahydro-[1,1′- biphenyl]-2-yl)methyl) piperazin-1-yl)-N-((4-((1-(4- ((dimethyl(oxo)-λ^6- sulfanylidene)amino) piperidin-1-yl)propan-2-yl) amino)-3-nitrophenyl)sulfonyl) benzamide [Example 97]” has an IC50 (RS4; 11 cells) of 1 nM and an IC50 (DOHH2 cells) of 325 nM.

`CC(=O)N=S1(=O)CCN(CCNc2ccc(S(=O)(=O)NC(=O)c3ccc(N4CCN(CC5=C(c6ccc(Cl)cc6)CC(C)(C)CC5)CC4)cc3Oc3cnc4[nH]ccc4c3)cc2[N+](=O)[O-])CC1` [Example 37, 2-((1H-pyrrolo[2,3-b]pyridin-5-yl)oxy)-N-((4-((2-(1-(acetylimino)-1-oxido-1λ^6-thiomorpholino)ethyl)amino)-3-nitrophenyl)sulfonyl)-4-(4-((4′-chloro-5,5-dimethyl-3,4,5,6-tetrahydro-[1,1′-biphenyl]-2-yl)methyl)piperazin-1-yl) benzamide] gave an IC50 (RS4; 11 cells; Homo sapiens, RS4-11, 72 h) of 12 nM and an IC50 (DOHH2 cells; Homo sapiens, DOHH-2, 120 h) of 228 nM.

With `CC(C)OC(=O)N=S1(=O)CCN(CC[C@H](C)Nc2ccc(S(=O)(=O)NC(=O)c3ccc(N4CCN(CC5=C(c6ccc(Cl)cc6)CC(C)(C)CC5)CC4)cc3Oc3cnc4[nH]ccc4c3)cc2S(=O)(=O)C(F)(F)F)CC1` [Example 93, isopropyl (S)-(4-(3-((4-(N-(2-((1H-pyrrolo[2,3-b]pyridin-5-yl)oxy)-4-(4-((4′-chloro-5,5-dimethyl-3,4,5,6-tetrahydro-[1,1′-biphenyl]-2-yl)methyl)piperazin-1-yl)benzoyl)sulfamoyl)-2-((trifluoromethyl)sulfonyl)phenyl)amino)butyl)-1-oxido-1λ^6-thiomorpholin-1-ylidene) carbamate] the IC50 (RS4; 11 cells; Homo sapiens, RS4-11, 72 h) was 184 nM and the IC50 (DOHH2 cells; Homo sapiens, DOHH-2, 120 h) was 537 nM.

Work on `CC1(C)CCC(CN2CCN(c3ccc(C(=O)NS(=O)(=O)c4ccc(NCC5CCC(N=S6(=O)CCOCC6)CC5)c([N+](=O)[O-])c4)c(Oc4cnc5[nH]ccc5c4)c3)CC2)=C(c2ccc(Cl)cc2)C1` (stereo not shown) [Example 54, 2-((1H-pyrrolo[2,3-b]pyridin-5-yl)oxy)-4-(4-((4′-chloro-5,5-dimethyl-3,4,5,6-tetrahydro-[1,1′-biphenyl]-2-yl)methyl)piperazin-1-yl)-N-((3-nitro-4-(((4-((4-oxido-1,4λ^6-oxathian-4-ylidene)amino)cyclohexyl)methyl)amino)phenyl)sulfonyl) benzamide] yielded an IC50 (RS4; 11 cells; Homo sapiens, RS4-11, 72 h) of 4 nM and an IC50 (DOHH2 cells; Homo sapiens, DOHH-2, 120 h) of 9 nM.

`C[C@@H](CN1CCS(=O)(=NC#N)CC1)Nc1ccc(S(=O)(=O)NC(=O)c2ccc(N3CCN(CC4=C(c5ccc(Cl)cc5)CC(C)(C)CC4)CC3)cc2Oc2cnc3[nH]ccc3c2)cc1[N+](=O)[O-]` [Example 6, (S)-2-((1H-pyrrolo[2,3-b]pyridin-5-yl)oxy)-4-(4-((4′-chloro-5,5-dimethyl-3,4,5,6-tetrahydro-[1,1′-biphenyl]-2-yl)methyl)piperazin-1-yl)-N-((4-((1-(1-(cyanoimino)-1-oxido-1λ^6-thiomorpholino)propan-2-yl)amino)-3-nitrophenyl)sulfonyl)benzamide] gave an IC50 (RS4; 11 cells; Homo sapiens, RS4-11, 72 h) of 36 nM and an IC50 (DOHH2 cells; Homo sapiens, DOHH-2, 120 h) of 150 nM.

For `CC1(C)CCC(CN2CCN(c3ccc(C(=O)NS(=O)(=O)c4ccc(NCCN5CCS(=O)(=NC6CC6)CC5)c([N+](=O)[O-])c4)c(Oc4cnc5[nH]ccc5c4)c3)CC2)=C(c2ccc(Cl)cc2)C1` [Example 35, 2-((1H-pyrrolo[2,3-b]pyridin-5-yl)oxy)-4-(4-((4′-chloro-5,5-dimethyl-3,4,5,6-tetrahydro-[1,1′-biphenyl]-2-yl)methyl)piperazin-1-yl)-N-((4-((2-(1-(cyclopropylimino)-1-oxido-1λ^6-thiomorpholino)ethyl)amino)-3-nitrophenyl)sulfonyl)benzamide], the IC50 (RS4; 11 cells; Homo sapiens, RS4-11, 72 h) was 60 nM and the IC50 (DOHH2 cells; Homo sapiens, DOHH-2, 120 h) was 181 nM.

In the case of “2-((1H-pyrrolo[2,3-b] pyridin-5-yl)oxy)-4-(4-((4′- chloro-5,5-dimethyl-3,4,5,6- tetrahydro-[1,1′-biphenyl]-2-yl) methyl)piperazin-1-yl)- N-((4-((2-(4-((dimethyl(oxo)-λ^6- sulfanylidene) amino)piperidin-1-yl)ethyl) amino)-3-nitrophenyl)sulfonyl) benzamide [Example 98]”, the IC50 (RS4; 11 cells) is reported as 2 nM and the IC50 (DOHH2 cells) is reported as 176 nM.

`CC1(C)CCC(CN2CCN(c3ccc(C(=O)NS(=O)(=O)c4ccc(NCC5CCOCC5)c([N+](=O)[O-])c4)c(Oc4cnc5[nH]ccc5c4)c3)CC2)=C(c2ccc(Cl)cc2)C1` [Reference compound 1, 2-((1H-pyrrolo[2,3-b]pyridin-5-yl)oxy)-4-(4-((4′-chloro-5,5-dimethyl-3,4,5,6-tetrahydro-[1,1′-biphenyl]-2-yl)methyl)piperazin-1-yl)-N-((3-nitro-4-(((tetrahydro-2H-pyran-4-yl)methyl)amino)phenyl)sulfonyl)benzamide, reference compound] was tested, and the IC50 (RS4; 11 cells; Homo sapiens, RS4-11, 72 h) was 18 nM and the IC50 (DOHH2 cells; Homo sapiens, DOHH-2, 120 h) was 57 nM.

For `CC(C)C(=O)N=S1(=O)CCN(C[C@H](C)Nc2ccc(S(=O)(=O)NC(=O)c3ccc(N4CCN(CC5=C(c6ccc(Cl)cc6)CC(C)(C)CC5)CC4)cc3Oc3cnc4[nH]ccc4c3)cc2[N+](=O)[O-])CC1` [Example 66, (S)-2-((1H-pyrrolo[2,3-b]pyridin-5-yl)oxy)-4-(4-((4′-chloro-5,5-dimethyl-3,4,5,6-tetrahydro-[1,1′-biphenyl]-2-yl)methyl)piperazin-1-yl)-N-((4-((1-(1-(isobutyrylimino)-1-oxido-1λ^6-thiomorpholino)propan-2-yl)amino)-3-nitrophenyl)sulfonyl) benzamide], the IC50 (RS4; 11 cells; Homo sapiens, RS4-11, 72 h) was 11 nM and the IC50 (DOHH2 cells; Homo sapiens, DOHH-2, 120 h) was 23 nM.

From US11053239B2, “Compounds as BLC-2-selective apoptosis-inducing agents” (Fochon Pharmaceuticals, Ltd., priority 2017, dated 2021)
